Reference: patent US11286274B2, “Nicotinamide riboside derivatives and their uses” (MitoPower LLC, priority 2017, dated 2022)
Structures can show the parent of a compound that is named as a salt.

Assays:
HEPG2 cells = assay: Total cellular NAD+ level after MNNG-induced depletion (NAD/NADH Glo Assay), HEPG2 cells; format: cell-based; conditions: HEPG2, MNNG 100 μM, compound 1 mM
Jurkat cells = assay: Total cellular NAD+ level after MNNG-induced depletion (NAD/NADH Glo Assay), Jurkat cells; format: cell-based; conditions: for % NAD+ Repletion: Jurkat, MNNG 100 μM, compound 1 mM; for increase of NAD+ level: Jurkat cells, 100 μM MNNG 30 min

SMILES | % NAD+ Repletion (HEPG2 cells) | % NAD+ Repletion (Jurkat cells) | increase of NAD+ level (Jurkat cells; then NR 100 μM without olaparib for 3.5 hr) | increase of NAD+ level (Jurkat cells; then olaparib 5 nM without NR for 3.5 hr)
NC(=O)c1ccc[n+]([C@@H]2O[C@H](COC(=O)CCC(=O)O)[C@@H](O)[C@H]2O)c1 [MP-42, 3-Carboxamide-1-((2R,3R,4S,5R)-5-(((3-carboxypropanoyl)oxy)methyl)-3,4-dihydroxytetrahydrofuran-2-yl)pyridin-1-ium trifluoroacetate] | 23.7% | 8.2% |  | 
COC(=O)CCC(=O)OC[C@H]1O[C@@H]([n+]2cccc(C(N)=O)c2)[C@H](O)[C@@H]1O [MP-43, 3-Carboxamide-1-((2R,3R,4S,5R)-3,4-dihydroxy-5-(((4-methoxy-4-oxobutanoyl)oxy)methyl)tetrahydrofuran-2-yl)pyridin-1-ium trifluoroacetate] | 31.1% | 12.9% |  | 
NC(=O)c1ccc[n+]([C@@H]2O[C@H](CO)[C@@H](O)[C@H]2O)c1 [NR, nicotinamide riboside] |  |  | 43% | 
O=C(c1cc(Cc2n[nH]c(=O)c3ccccc23)ccc1F)N1CCN(C(=O)C2CC2)CC1 [olaparib, reference compound] |  |  |  | 8%
